Measurements taken from patent US7772001B2, “Directed differentiation of embryonic stem cells into an endoderm cell” (Yissum Research Development Company Of the Hebrew …, priority 2000, dated 2010).

Assays:
Format in all cases: cell-based
[1] = test system: human differentiated embryonic (DE) cells; experiment: Morphology of DE cells cultured with growth factors; conditions: several days on plastic, continuous exposure to growth factor (FIG. 1B)
Method: (§1) Cell Culture: Human embryonic stem cells were grown on a feeder layer of mouse embryonic fibroblasts (MEF) and then transferred to gelatin coated plates and cultured further to reduce the number of murine cells in the culture. Differentiation into embryoid bodies (EBs) was initiated by transfer to Petri dishes, where the embryoid bodies remained in suspension. After 5 days, the EBs become dissociated and cells are cultured as a monolayer forming differentiated embryonic (DE) cells. This protocol allows for initial differentiation of the human embryonic stem cells as aggregates and further differentiation as a monolayer wherein cells can be exposed to exogenous growth factors. The DE cells were cultured for 10 days in the presence of 8 different growth factors: NGF, bFGF, Activin-A, TGFβ1, HGF, EGF, BMP4 and retinoic acid (RA) (FIG. 1A).
To induce formation of EBs, ES cells were transferred using trypsin/EDTA (0.1%/l mM) to plastic Petri dishes to allow their aggregation and prevent adherence to the plate. Human EBs were grown in the same culture medium, except that it lacked leukemia inhibitory factor (LIF) and bFGF. The EBs were cultured for 5 days and then dissociated and plated on tissue culture plates coated with 50 μg/ml Fibronectin (Boehringer Mannheim). […]

[2] = test system: human differentiated embryonic (DE) cells; experiment: RT-PCR of cell specific genes in DE cells treated with growth factors; conditions: for expression of uro-genital marker WT-1 / set of cell specific transcripts produced: DE cells, 10 days with factor; for blood formation / differentiation into chondrocytes / differentiation into ectodermal cells / differentiation into endodermal cells / differentiation into kidney cells / differentiation into mesodermal cells / differentiation into skin cells / differentiation of brain cells (neurons) / differentiation toward liver (hepatocytes) / differentiation toward pancreas (islet cells) / differentiation of heart cells / differentiation of muscle / differentiation into Mullerian duct cells: vs control without growth factor (FIG. 4); for overall induction or repression of cell specific expression (FIG. 3B): at least three experiments
Method: as §1
To induce formation of EBs, ES cells were transferred using trypsin/EDTA (0.1%/l mM) to plastic Petri dishes to allow their aggregation and prevent adherence to the plate. Human EBs were grown in the same culture medium, except that it lacked leukemia inhibitory factor (LIF) and bFGF. The EBs were cultured for 5 days and then dissociated and plated on tissue culture plates coated with 50 μg/ml Fibronectin (Boehringer Mannheim). The cells were grown in the presence of the following human recombinant growth factors used singly or in groups: Basic Fibroblast Growth Factor (bFGF) (Swoboda et al, 1999)—10 ng/ml (Gibco BRL); Transforming Growth Factor Beta 1 (TGFβ1) (Swoboda et al, 1999)—2 ng/ml (R&D Systems); Activin-A (Slager et al, 1993)—20 ng/ml (R&D Systems); Bone Morphogenic Protein 4 (BMP-4) (Slager et al, 1993; Bain et al, 1996)—10 ng/ml (R&D Systems); Hepatocyte Growth Factor (HGF)/Scatter Factor (Doetsch et al, 1999)—20 ng/ml (R&D Systems); Epidermal Growth Factor (EGF) (Doetsch et al, 1999)—100 ng/ml (R&D Systems); βNerve Growth Factor (NGF) (Johansson et al, 1999)—100 ng/ml (R&D Systems); Retinoic acid (RA) (Deacon et al, 1998; Peschanski et al, 1995)—1 μM (Sigma). Under these conditions the differentiated embryonic (DE) cells were grown for another 10 days. All of the examined growth factors are absent from the KnockOut™ serum replacement in which the embryonic cells were cultured.
RT-PCR Analysis: Total RNA was extracted using Atlas™ Pure Total RNA Kit (Clontech). cDNA was synthesized from 1 μg total RNA, using Atlas™ RT-for-PCR Kit (Clontech). cDNA samples were subjected to PCR amplification with DNA primers selective for the human genes. For each gene, the DNA primers were derived from different exons to ensure that the PCR product represents the specific mRNA species and not genomic DNA. PCR was performed using the Clontech Advantaq+™ RT-PCR kit and using a two-step cycle at 68° C.
Primers were synthesized for the following genes: neurofilament heavy chain (NF-H), phosphoprotein enriched in astrocytes (PEA-15), Keratin, Dopamine β Hydroxylase (DβH), Follicular Stimulating Hormone (FSH), Enolase, Myosin light polypeptide2 (myosin), Cartilage Matrix Protein (CMP), Renin, Kallikrein, Wilms Tumor 1 (WTI), β-Globin (β-Glob), δ-Globin (δ-Glob), Cardiac Actin (cACT), Albumin, α1 anti-trypsin (α1 AT), Lipase, Amylase, PDX-1, Insulin, Glucagon, Surfactant, Parathyroid Hormone (PTH), α-feto protein (αFP), Retinoic Acid Receptor type alpha (RAR), Hepatocyte Growth Factor Receptor (c-Met), Nerve Growth Factor Receptor (NGFR), Fibroblast Growth Factor Receptor type I (FGFRI), Transforming Growth Factor Receptor type II (TGFRII), Epidermal Growth Factor Receptor type (EGFR), Activin Receptor type IIB (ACTRIIB), Bone Morphogenic Protein 4 Receptor type II (BMP4RII), Octamer Binding Protein 4 (Oct 4), Glyceraldehyde 3-phosphate dehydrogenase (G3PD), β-Actin. Also incorporated by reference, see http://www.ls.huji.ac.il/˜nissimb/factors_es/primers.html-ente.
The differentiation induced by growth factors was further examined by determining the expression of a panel of 24 cell specific genes using RT-PCR. […]

[3] = test system: human EBs (from human ES cells); experiment: In situ hybridization to NF-L RNA in cells derived from dissociated EBs; conditions: for proportion of neuronal cells in the cultures (NF-L RNA): controls 21%
Method: (§2) In Situ Hybridization and Immunohistochemistry: EBs or their plated derivatives were fixed in 4% paraformaldehyde. In in-situ experiments, hybridization to a 50-mer 2′-O-methyl 5′-biotinylated cDNA of NF-L (SEQ ID NO:1) (CCTGCGTGCGGATGGAC […]) followed. The probes were then detected with streptavidin-conjugated alkaline phosphatase using a fluorogenic substrate (Grifman et al, 1998). For immunohistochemistry, EBs were either embedded in paraffin and sectioned at 10 μM, or stained directly on the plates. Mouse monoclonal anti-NF-II was used as a primary antibody, and was detected with Cy3-conjugated goat anti-mouse igG.
(§3) Cell Culture. Human ES cells were grown and EBs were generated as described in Example 1. Four days following initiation of aggregation growth factors were administered: retinoic acid (Sigma): 10-^7 M (Bain et al, 1995) or 10^−6 (Bain et al, 1996); TGFβ1 (Sigma): 2 ng/ml (Slager et al, 1993); βNGF (New Biotechnology, Israel): 100 ng/ml (Wobus et al, 1988). After 21 days, EBs were plated on 5 μm/cm^2 collagen treated plates, either as whole EB's, or as single cells dissociated with trypsin/EDTA. The cultures were maintained for an additional week or 2 days, respectively.
In situ hybridization and immunohistochemistry was carried out according to Example 1. RT-PCR analysis. cDNA was synthesized from total RNA and PCR performed according to Example I. Primers for GAPDH, serotonin receptors 2A and 5A (5HT2A7 5HT5A, respectively) and dopamine receptor D1 (DRD1) were purchased from Clontech. The primers for dopa decarboxylase (DDC) were: […] (SEQ ID NO:2) and […] (SEQ ID NO:3).
Differentiation was initially assayed by in-situ hybridization to neurofilament light chain (NF-L) RNA, which is expressed by both immature and fully differentiated neurons (Carden et al, 1987).

[4] = test system: human EBs; experiment: NF-H immunostaining of plated EBs, neuronal network complexity; conditions: RA treatment and plating on collagen; untreated EBs 54%
Method: as §2, §3
In situ hybridization and immunohistochemistry was carried out according to Example 1. […]

Row | Compound | cell morphology found in treated culture [1] | expression of uro-genital marker WT-1 [2] | blood formation [2] | differentiation into chondrocytes [2] | differentiation into ectodermal cells [2] | differentiation into endodermal cells [2] | differentiation into kidney cells [2] | differentiation into mesodermal cells [2] | differentiation into skin cells [2] | differentiation of brain cells (neurons) [2] | differentiation toward liver (hepatocytes) [2] | differentiation toward pancreas (islet cells) [2] | differentiation of heart cells [2] | differentiation of muscle [2] | set of cell specific transcripts produced [2] | overall induction or repression of cell specific expression (FIG. 3B) [2] | differentiation into Mullerian duct cells [2] | also measured
1 | HGF: human recombinant Hepatocyte Growth Factor/Scatter Factor, 20 ng/ml | large populations of small cells with pronounced nuclei | expressed | significant inhibition | significant inhibition | allows | allows | completely inhibited | allows | induced at their normal level | significant inhibition | significant inhibition | significant inhibition | – | – | – | – | – | –
2 | EGF: human recombinant Epidermal Growth Factor, 100 ng/ml (NSDSECPLSHDGYCLHDGVCMYIEALDKYACNCVVGYIGERCQYRDLKWWELR; UniProt P01133 971-1023, looked up) | – | – | inhibits | – | allow or induce | – | inhibits | allow or induce | stimulate | inhibits | – | – | stimulate | permits normal levels | – | – | – | –
3 | NGF: human recombinant β nerve growth factor, 100 ng/ml | – | expressed | stimulate | down-regulate | allows | allows | direct the differentiation | allows | completely inhibited | direct the differentiation | direct the differentiation | direct the differentiation | stimulate | down-regulate | induce expression of a variety of transcripts indicative of cells from all three germ layers | induces the greatest variety of cell specific gene expression | direct the differentiation | number of neuronal cells that develop from human embryonic cells ([3]; summary statement): enhance; proportion of neuronal cells in the cultures (NF-L RNA) ([3]; βNGF 100 ng/ml): 39%; expression of adrenal markers [2]: not; expression of endodermal markers [2]: induce
4 | TGFβ1: human recombinant Transforming Growth Factor Beta 1, 2 ng/ml | – | – | inhibit | inhibit | inhibit | inhibit | inhibit | allow differentiation into selected mesodermal cells | – | – | – | – | – | – | relatively reduced set of specific transcripts | mostly repress or fail to direct differentiation of as many cell types | inhibit | effect on neuronal differentiation (NF-L RNA) ([3]; TGFβ1 2 ng/ml): no effect
5 | bFGF: human recombinant Basic Fibroblast Growth Factor, 10 ng/ml | fibroblast like cells | – | – | – | allow or induce | – | inhibits | allow or induce | permits formation of normal levels | permits formation of normal levels | – | – | stimulates | permits formation of normal levels | – | – | – | –
6 | CC1=C(/C=C/C(C)=C/C=C/C(C)=C/C(=O)O)C(C)(C)CCC1 [RA, retinoic acid, reference compound] | – | – | – | – | – | – | – | – | – | – | – | – | – | – | – | – | – | number of EBs containing NF-H positive neurons [4]: 76%; proportion of neuronal cells in the cultures (NF-L RNA) ([3]; high concentration of RA (10^−6 M)): 52%
